Laboratory results reported in the supplement of paper PMC9663587.

Key:
THZ531 = compound: CN(C)C/C=C/C(=O)Nc1ccc(C(=O)N2CCC[C@@H](Nc3ncc(Cl)c(-c4c[nH]c5ccccc45)n3)C2)cc1 [THZ531]; test: increase in dead-cell fraction, 72 h; higher = more death;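 note: breast cancer cell lines in 384-well plates, stained with Hoechst plus LIVE/DEAD far red dye and imaged, cells above an LDR intensity threshold counted dead, Hoechst-negative corpses included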
LEE011/Ribociclib = compound: CN(C)C(=O)c1cc2cnc(Nc3ccc(N4CCNCC4)cn3)nc2n1C1CCCC1 [LEE011/Ribociclib]; test: as above
THZ1 = compound: CN(C)C/C=C/C(=O)Nc1ccc(C(=O)Nc2cccc(Nc3ncc(Cl)c(-c4c[nH]c5ccccc45)n3)c2)cc1 [THZ1]; test: as above
YKL-5-124 = compound: C=CC(=O)Nc1ccc(C(=O)Nc2[nH]nc3c2CN(C(=O)N[C@H](CN(C)C)c2ccccc2)C3(C)C)cc1 [YKL-5-124]; test: as above
Flavopiridol = compound: CN1CC[C@H](c2c(O)cc(O)c3c(=O)cc(-c4ccccc4Cl)oc23)[C@H](O)C1 [Flavopiridol]; test: as above
[1] = compound: CCc1cnn2c(NCc3ccc[n+]([O-])c3)cc(N3CCCC[C@H]3CCO)nc12; test: as above
BSJ-03-123 = compound: CC(=O)c1c(C)c2cnc(Nc3ccc(N4CCN(CCOCCOCCOCCNC(=O)COc5cccc6c5C(=O)N(C5CCC(=O)NC5=O)C6=O)CC4)cn3)nc2n(C2CCCC2)c1=O [BSJ-03-123]; test: as above
Neratinib/HKI272 = compound: CCOc1cc2ncc(C#N)c(Nc3ccc(OCc4ccccn4)c(Cl)c3)c2cc1NC(=O)/C=C/CN(C)C [Neratinib/HKI272]; test: as above
[2] = compound: CCN1CCN(Cc2ccc(Nc3ncc(F)c(-c4cc(F)c5nc(C)n(C(C)C)c5c4)n3)nc2)CC1; test: as above
[3] = compound: CC(=O)c1c(C)c2cnc(Nc3ccc(N4CCNCC4)cn3)nc2n(C2CCCC2)c1=O; test: as above
Doxorubicin = compound: COc1cccc2c1C(=O)c1c(O)c3c(c(O)c1C2=O)C[C@@](O)(C(=O)CO)C[C@@H]3O[C@H]1C[C@H](N)[C@H](O)[C@H](C)O1 [Doxorubicin]
[4] = compound: CCc1cnn2c(NCc3ccc[n+]([O-])c3)cc(N3CCCC[C@H]3CCO)nc12
[5] = compound: Cc1nn(C)c(COc2ccc(N3CCN(S(=O)(=O)N(C)C)CC3)cc2)c1-c1cccc2c(CCCOc3cccc4ccccc34)c(C(=O)O)n(CCN3CCOCC3)c12
Pictilisib/GDC0941 = compound: CS(=O)(=O)N1CCN(Cc2cc3nc(-c4cccc5[nH]ncc45)nc(N4CCOCC4)c3s2)CC1 [Pictilisib/GDC0941]
Ceritinib/LDK378 = compound: Cc1cc(Nc2ncc(Cl)c(Nc3ccccc3S(=O)(=O)C(C)C)n2)c(OC(C)C)cc1C1CCNCC1 [Ceritinib/LDK378]
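Throughout, for GR50, 72 h: breast cancer and non-malignant breast epithelial cell lines, Deep Dye Drop or Dye Drop imaging, nine half-log doses, GR normalized to time-zero plates and DMSO-only controls.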

Cell Line: MDAMB175VII
- increase in dead-cell fraction (THZ531; 0.0001 µM): 0.0053
- increase in dead-cell fraction (THZ531; 0.0003162 µM): 0.0019
- increase in dead-cell fraction (THZ531; 0.001 µM): 0.0075
- increase in dead-cell fraction (THZ531; 0.003162 µM): 0.0041
- increase in dead-cell fraction (THZ531; 0.01 µM): 0.0043
- increase in dead-cell fraction (THZ531; 0.03162 µM): 0.0033
- increase in dead-cell fraction (THZ531; 0.1 µM): 0.105
- increase in dead-cell fraction (THZ531; 0.3162 µM): 0.231
- increase in dead-cell fraction (THZ531; 1 µM): 0.0668
- increase in dead-cell fraction (LEE011/Ribociclib; 0.001 µM): 0.0066
- increase in dead-cell fraction (LEE011/Ribociclib; 0.003162 µM): 0.0124
- increase in dead-cell fraction (LEE011/Ribociclib; 0.01 µM): 0.0047
- increase in dead-cell fraction (LEE011/Ribociclib; 0.03162 µM): 0.0118
- increase in dead-cell fraction (LEE011/Ribociclib; 0.1 µM): 0.0182
- increase in dead-cell fraction (LEE011/Ribociclib; 0.3162 µM): 0.0102
- increase in dead-cell fraction (LEE011/Ribociclib; 1 µM): 0.0154
- increase in dead-cell fraction (LEE011/Ribociclib; 3.162 µM): 0.0181
- increase in dead-cell fraction (LEE011/Ribociclib; 10 µM): 0.0148
- increase in dead-cell fraction (THZ1; 0.0001 µM): 0.0012
- increase in dead-cell fraction (THZ1; 0.0003162 µM): -0.0011
- increase in dead-cell fraction (THZ1; 0.001 µM): -0.0032
- increase in dead-cell fraction (THZ1; 0.003162 µM): -0.0005
- increase in dead-cell fraction (THZ1; 0.01 µM): 0.0034
- increase in dead-cell fraction (THZ1; 0.03162 µM): 0.0153
- increase in dead-cell fraction (THZ1; 0.1 µM): 0.0349
- increase in dead-cell fraction (THZ1; 0.3162 µM): 0.0573
- increase in dead-cell fraction (THZ1; 1 µM): 0.0912
- increase in dead-cell fraction (YKL-5-124; 0.001 µM): 0.0167
- increase in dead-cell fraction (YKL-5-124; 0.003162 µM): 0.0032
- increase in dead-cell fraction (YKL-5-124; 0.01 µM): 0.0173
- increase in dead-cell fraction (YKL-5-124; 0.03162 µM): 0.0139
- increase in dead-cell fraction (YKL-5-124; 0.1 µM): 0.0095
- increase in dead-cell fraction (YKL-5-124; 0.3162 µM): 0.0149
- increase in dead-cell fraction (YKL-5-124; 1 µM): 0.0069
- increase in dead-cell fraction (YKL-5-124; 3.162 µM): 0.0133
- increase in dead-cell fraction (YKL-5-124; 10 µM): 0.285
- increase in dead-cell fraction (Flavopiridol; 0.0001 µM): -0.0018
- increase in dead-cell fraction (Flavopiridol; 0.0003162 µM): -0.0019
- increase in dead-cell fraction (Flavopiridol; 0.001 µM): 0.0003
- increase in dead-cell fraction (Flavopiridol; 0.003162 µM): 0.0018
- increase in dead-cell fraction (Flavopiridol; 0.01 µM): 0.0067
- increase in dead-cell fraction (Flavopiridol; 0.03162 µM): -0.0026
- increase in dead-cell fraction (Flavopiridol; 0.1 µM): 0.0081
- increase in dead-cell fraction (Flavopiridol; 0.3162 µM): 0.0294
- increase in dead-cell fraction (Flavopiridol; 1 µM): 0.0685
- increase in dead-cell fraction ([1]; 0.0001 µM): -0.004
- increase in dead-cell fraction ([1]; 0.0003162 µM): -0.0015
- increase in dead-cell fraction ([1]; 0.001 µM): -0.0018
- increase in dead-cell fraction ([1]; 0.003162 µM): -0.0039
- increase in dead-cell fraction ([1]; 0.01 µM): 0.001
- increase in dead-cell fraction ([1]; 0.03162 µM): 0.116
- increase in dead-cell fraction ([1]; 0.1 µM): 0.0618
- increase in dead-cell fraction ([1]; 0.3162 µM): 0.0494
- increase in dead-cell fraction ([1]; 1 µM): 0.0562
- increase in dead-cell fraction (BSJ-03-123; 0.001 µM): 0.0049
- increase in dead-cell fraction (BSJ-03-123; 0.003162 µM): 0.0003
- increase in dead-cell fraction (BSJ-03-123; 0.01 µM): 0.0001
- increase in dead-cell fraction (BSJ-03-123; 0.03162 µM): 0.0082
- increase in dead-cell fraction (BSJ-03-123; 0.1 µM): 0.0009
- increase in dead-cell fraction (BSJ-03-123; 0.3162 µM): 0.0035
- increase in dead-cell fraction (BSJ-03-123; 1 µM): 0.0093
- increase in dead-cell fraction (BSJ-03-123; 3.162 µM): 0.009
- increase in dead-cell fraction (BSJ-03-123; 10 µM): 0.0139
- increase in dead-cell fraction (Neratinib/HKI272; 0.0003162 µM): -0.0063
- increase in dead-cell fraction (Neratinib/HKI272; 0.001 µM): -0.0069
- increase in dead-cell fraction (Neratinib/HKI272; 0.003162 µM): 0.0132
- increase in dead-cell fraction (Neratinib/HKI272; 0.01 µM): 0.0578
- increase in dead-cell fraction (Neratinib/HKI272; 0.03162 µM): 0.214
- increase in dead-cell fraction (Neratinib/HKI272; 0.1 µM): 0.276
- increase in dead-cell fraction (Neratinib/HKI272; 0.3162 µM): 0.406
- increase in dead-cell fraction (Neratinib/HKI272; 1 µM): 0.44
- increase in dead-cell fraction (Neratinib/HKI272; 3.162 µM): 0.49
- increase in dead-cell fraction ([2]; 0.001 µM): -0.0013
- increase in dead-cell fraction ([2]; 0.003162 µM): -0.0015
- increase in dead-cell fraction ([2]; 0.01 µM): 0.0094
- increase in dead-cell fraction ([2]; 0.03162 µM): 0.0188
- increase in dead-cell fraction ([2]; 0.1 µM): 0.0085
- increase in dead-cell fraction ([2]; 0.3162 µM): 0.013
- increase in dead-cell fraction ([2]; 1 µM): 0.0044
- increase in dead-cell fraction ([2]; 3.162 µM): 0.0131
- increase in dead-cell fraction ([2]; 10 µM): 0.0317
- increase in dead-cell fraction ([3]; 0.0003162 µM): 0.0035
- increase in dead-cell fraction ([3]; 0.001 µM): 0.0034
- increase in dead-cell fraction ([3]; 0.003162 µM): -0.0018
- increase in dead-cell fraction ([3]; 0.01 µM): 0.0077
- increase in dead-cell fraction ([3]; 0.03162 µM): 0.0116
- increase in dead-cell fraction ([3]; 0.1 µM): 0.0214
- increase in dead-cell fraction ([3]; 0.3162 µM): 0.0115
- increase in dead-cell fraction ([3]; 1 µM): 0.0097
- increase in dead-cell fraction ([3]; 3.162 µM): 0.0212
- GR50, 72 h (Doxorubicin): 0.00311 µM
- GR50, 72 h [4]: 0.0118 µM
- GR50, 72 h [5]: > 10 µM
- GR50, 72 h (Pictilisib/GDC0941): 0.345 µM
- GR50, 72 h (Ceritinib/LDK378): 2.56 µM

Cell Line: HCC1428
- increase in dead-cell fraction ([1]; 0.0001 µM): 0.0044
- increase in dead-cell fraction ([1]; 0.0003162 µM): 0.0006
- increase in dead-cell fraction ([1]; 0.001 µM): 0.0016
- increase in dead-cell fraction ([1]; 0.003162 µM): -0.0135
- increase in dead-cell fraction ([1]; 0.01 µM): 0.0043
- increase in dead-cell fraction ([1]; 0.03162 µM): 0.283
- increase in dead-cell fraction ([1]; 0.1 µM): 0.562
- increase in dead-cell fraction ([1]; 0.3162 µM): 0.64
- increase in dead-cell fraction ([1]; 1 µM): 0.687
- increase in dead-cell fraction (Neratinib/HKI272; 0.0003162 µM): 0.0076
- increase in dead-cell fraction (Neratinib/HKI272; 0.001 µM): 0.0073
- increase in dead-cell fraction (Neratinib/HKI272; 0.003162 µM): 0.0021
- increase in dead-cell fraction (Neratinib/HKI272; 0.01 µM): -0.0004
- increase in dead-cell fraction (Neratinib/HKI272; 0.03162 µM): 0.0008
- increase in dead-cell fraction (Neratinib/HKI272; 0.1 µM): 0.0018
- increase in dead-cell fraction (Neratinib/HKI272; 0.3162 µM): 0.0002
- increase in dead-cell fraction (Neratinib/HKI272; 1 µM): 0.0203
- increase in dead-cell fraction (Neratinib/HKI272; 3.162 µM): 0.217
- increase in dead-cell fraction ([2]; 0.001 µM): -0.0074
- increase in dead-cell fraction ([2]; 0.003162 µM): 0.0007
- increase in dead-cell fraction ([2]; 0.01 µM): 0.0093
- increase in dead-cell fraction ([2]; 0.03162 µM): 0.0115
- increase in dead-cell fraction ([2]; 0.1 µM): 0.0154
- increase in dead-cell fraction ([2]; 0.3162 µM): 0.0035
- increase in dead-cell fraction ([2]; 1 µM): 0.0027
- increase in dead-cell fraction ([2]; 3.162 µM): 0.0224
- increase in dead-cell fraction ([2]; 10 µM): 0.0617
- increase in dead-cell fraction ([3]; 0.0003162 µM): 0.005
- increase in dead-cell fraction ([3]; 0.001 µM): -0.0004
- increase in dead-cell fraction ([3]; 0.003162 µM): -0.0052
- increase in dead-cell fraction ([3]; 0.01 µM): 0.0068
- increase in dead-cell fraction ([3]; 0.03162 µM): 0.0017
- increase in dead-cell fraction ([3]; 0.1 µM): 0.0007
- increase in dead-cell fraction ([3]; 0.3162 µM): 0.0117
- increase in dead-cell fraction ([3]; 1 µM): 0.0083
- increase in dead-cell fraction ([3]; 3.162 µM): 0.0097
- GR50, 72 h (Doxorubicin): 0.00474 µM
- GR50, 72 h [4]: 0.0171 µM
- GR50, 72 h [5]: > 10 µM
- GR50, 72 h (Pictilisib/GDC0941): 5.87 µM
- GR50, 72 h (Ceritinib/LDK378): 1.24 µM
